# In ChEMBL document CHEMBL3991601, “The target landscape of clinical kinase drugs” (Science, 2017):
# Calls of active or inactive are those of the source. Rule as the data show it, for most assays here: actives have a measured Kd and inactives only a lower limit.
# Key:
# [1] = target: Dual specificity tyrosine-phosphorylation-regulated kinase 1A (Homo sapiens, UniProt Q13627)
# [2] = target: Casein kinase II subunit alpha' (Homo sapiens, UniProt P19784)
# [3] = target: T1, Serine/threonine-protein kinase NLK (Homo sapiens, UniProt Q9UBE8)
# T1 sequence (Q9UBE8 whole entry): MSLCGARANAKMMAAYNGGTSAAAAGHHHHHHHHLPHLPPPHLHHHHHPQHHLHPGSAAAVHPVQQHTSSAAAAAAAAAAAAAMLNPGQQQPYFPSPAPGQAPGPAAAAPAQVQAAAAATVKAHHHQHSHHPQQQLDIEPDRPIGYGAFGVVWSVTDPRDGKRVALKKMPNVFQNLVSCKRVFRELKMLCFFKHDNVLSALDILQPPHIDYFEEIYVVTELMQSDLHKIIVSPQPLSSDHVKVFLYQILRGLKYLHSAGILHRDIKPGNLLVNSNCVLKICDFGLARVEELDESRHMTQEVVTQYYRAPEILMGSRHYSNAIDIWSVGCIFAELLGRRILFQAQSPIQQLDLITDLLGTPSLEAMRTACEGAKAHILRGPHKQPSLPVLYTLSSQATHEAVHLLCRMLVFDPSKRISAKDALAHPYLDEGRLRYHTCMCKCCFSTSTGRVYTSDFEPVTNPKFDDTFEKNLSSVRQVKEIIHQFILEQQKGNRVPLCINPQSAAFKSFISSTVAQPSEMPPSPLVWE
# [4] = target: Casein kinase I isoform epsilon (Homo sapiens, UniProt P49674)
# Sequence of Casein kinase I isoform epsilon (P49674 whole entry, canonical isoform): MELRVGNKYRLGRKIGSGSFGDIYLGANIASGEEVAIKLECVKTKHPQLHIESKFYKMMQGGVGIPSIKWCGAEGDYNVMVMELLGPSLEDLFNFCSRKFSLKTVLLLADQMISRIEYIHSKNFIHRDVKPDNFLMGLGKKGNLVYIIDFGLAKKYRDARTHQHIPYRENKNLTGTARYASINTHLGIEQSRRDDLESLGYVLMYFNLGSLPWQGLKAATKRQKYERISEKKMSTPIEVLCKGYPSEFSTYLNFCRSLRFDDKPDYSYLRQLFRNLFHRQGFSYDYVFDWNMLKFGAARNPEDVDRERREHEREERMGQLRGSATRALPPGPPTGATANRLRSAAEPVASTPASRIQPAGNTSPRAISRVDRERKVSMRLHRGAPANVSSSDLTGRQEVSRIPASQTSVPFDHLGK
# [5] = target: Protein kinase C beta type (Homo sapiens, UniProt P05771)
# Sequence of Protein kinase C beta type (P05771 whole entry): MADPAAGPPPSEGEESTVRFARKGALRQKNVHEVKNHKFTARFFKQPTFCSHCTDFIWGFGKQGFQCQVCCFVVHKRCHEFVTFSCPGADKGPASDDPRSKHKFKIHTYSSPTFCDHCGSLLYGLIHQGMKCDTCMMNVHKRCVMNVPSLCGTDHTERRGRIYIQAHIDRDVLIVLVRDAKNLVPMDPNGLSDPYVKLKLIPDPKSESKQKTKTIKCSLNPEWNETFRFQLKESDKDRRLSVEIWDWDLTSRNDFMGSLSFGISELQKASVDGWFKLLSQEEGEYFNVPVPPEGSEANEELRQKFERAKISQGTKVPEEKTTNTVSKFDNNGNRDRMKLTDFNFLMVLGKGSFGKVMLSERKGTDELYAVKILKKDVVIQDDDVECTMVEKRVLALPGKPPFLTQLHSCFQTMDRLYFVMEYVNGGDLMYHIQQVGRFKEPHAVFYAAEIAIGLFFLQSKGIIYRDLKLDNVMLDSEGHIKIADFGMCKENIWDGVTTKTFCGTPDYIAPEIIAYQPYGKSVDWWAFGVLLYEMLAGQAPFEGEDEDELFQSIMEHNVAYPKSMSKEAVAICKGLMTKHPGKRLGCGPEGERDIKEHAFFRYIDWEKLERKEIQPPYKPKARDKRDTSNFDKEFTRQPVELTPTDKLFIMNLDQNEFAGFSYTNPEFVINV
# [6] = target: T2, Bifunctional phosphoribosylaminoimidazole carboxylase/phosphoribosylaminoimidazole succinocarboxamide synthetase (Homo sapiens, UniProt P22234)
# T2 sequence (P22234 whole entry): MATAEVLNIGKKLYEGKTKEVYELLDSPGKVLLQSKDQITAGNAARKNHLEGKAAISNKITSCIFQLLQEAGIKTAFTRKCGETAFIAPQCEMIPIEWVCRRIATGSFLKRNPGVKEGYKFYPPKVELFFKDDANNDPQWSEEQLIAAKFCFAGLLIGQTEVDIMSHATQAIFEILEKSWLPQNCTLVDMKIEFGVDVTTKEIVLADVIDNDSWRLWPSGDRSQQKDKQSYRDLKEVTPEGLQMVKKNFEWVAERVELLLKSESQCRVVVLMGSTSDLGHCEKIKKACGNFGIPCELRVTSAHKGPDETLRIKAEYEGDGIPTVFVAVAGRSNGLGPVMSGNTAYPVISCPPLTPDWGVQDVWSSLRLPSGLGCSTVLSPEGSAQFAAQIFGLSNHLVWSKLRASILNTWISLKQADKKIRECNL
# [7] = target: T3, Electron transfer flavoprotein subunit beta (Homo sapiens, UniProt P38117)
# T3 sequence (P38117 whole entry): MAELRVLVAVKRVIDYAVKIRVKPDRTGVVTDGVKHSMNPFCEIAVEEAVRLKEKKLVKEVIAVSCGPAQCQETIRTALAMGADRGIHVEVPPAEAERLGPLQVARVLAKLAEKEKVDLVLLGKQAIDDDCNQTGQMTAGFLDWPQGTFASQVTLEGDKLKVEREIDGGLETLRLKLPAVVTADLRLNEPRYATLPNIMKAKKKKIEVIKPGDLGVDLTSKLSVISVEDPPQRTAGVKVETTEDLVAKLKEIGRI
# [8] = target: Serine/threonine-protein kinase/endoribonuclease IRE1 (Homo sapiens, UniProt O75460)
# Sequence of Serine/threonine-protein kinase/endoribonuclease IRE1 (O75460 whole entry): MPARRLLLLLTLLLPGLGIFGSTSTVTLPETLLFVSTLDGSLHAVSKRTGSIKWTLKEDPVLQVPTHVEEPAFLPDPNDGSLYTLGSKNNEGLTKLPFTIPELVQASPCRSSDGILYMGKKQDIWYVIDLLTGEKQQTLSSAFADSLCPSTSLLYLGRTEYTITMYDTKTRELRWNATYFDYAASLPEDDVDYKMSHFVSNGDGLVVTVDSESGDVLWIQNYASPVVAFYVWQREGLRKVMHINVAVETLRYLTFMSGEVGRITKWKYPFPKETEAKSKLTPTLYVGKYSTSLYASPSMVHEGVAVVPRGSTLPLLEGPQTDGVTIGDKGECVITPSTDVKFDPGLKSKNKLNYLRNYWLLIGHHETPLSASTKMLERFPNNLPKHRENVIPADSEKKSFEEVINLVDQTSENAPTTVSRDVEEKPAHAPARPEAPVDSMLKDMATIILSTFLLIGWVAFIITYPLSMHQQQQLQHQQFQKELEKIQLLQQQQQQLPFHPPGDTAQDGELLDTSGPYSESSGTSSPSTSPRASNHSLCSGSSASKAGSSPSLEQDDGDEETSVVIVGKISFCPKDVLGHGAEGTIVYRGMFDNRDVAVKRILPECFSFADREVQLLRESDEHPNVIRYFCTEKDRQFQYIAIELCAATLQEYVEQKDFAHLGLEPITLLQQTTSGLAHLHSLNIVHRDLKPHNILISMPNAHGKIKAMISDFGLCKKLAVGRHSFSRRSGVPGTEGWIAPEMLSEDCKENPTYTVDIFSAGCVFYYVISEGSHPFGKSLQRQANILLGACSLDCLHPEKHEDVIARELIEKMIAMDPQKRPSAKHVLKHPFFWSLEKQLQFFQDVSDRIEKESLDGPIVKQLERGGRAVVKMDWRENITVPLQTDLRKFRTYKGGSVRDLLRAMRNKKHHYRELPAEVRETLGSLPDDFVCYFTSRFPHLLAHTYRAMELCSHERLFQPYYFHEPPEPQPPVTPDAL
# [9] = target: T4, dCTP pyrophosphatase 1 (Homo sapiens, UniProt Q9H773)
# T4 sequence (Q9H773 whole entry): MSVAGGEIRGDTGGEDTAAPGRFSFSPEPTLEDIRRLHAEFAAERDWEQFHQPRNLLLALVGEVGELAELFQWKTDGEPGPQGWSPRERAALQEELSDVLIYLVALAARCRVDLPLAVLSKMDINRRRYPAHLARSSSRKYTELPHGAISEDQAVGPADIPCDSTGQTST
# [10] = target: T5, Bone morphogenetic protein receptor type-2 (Homo sapiens, UniProt Q13873)
# T5 sequence (Q13873 whole entry): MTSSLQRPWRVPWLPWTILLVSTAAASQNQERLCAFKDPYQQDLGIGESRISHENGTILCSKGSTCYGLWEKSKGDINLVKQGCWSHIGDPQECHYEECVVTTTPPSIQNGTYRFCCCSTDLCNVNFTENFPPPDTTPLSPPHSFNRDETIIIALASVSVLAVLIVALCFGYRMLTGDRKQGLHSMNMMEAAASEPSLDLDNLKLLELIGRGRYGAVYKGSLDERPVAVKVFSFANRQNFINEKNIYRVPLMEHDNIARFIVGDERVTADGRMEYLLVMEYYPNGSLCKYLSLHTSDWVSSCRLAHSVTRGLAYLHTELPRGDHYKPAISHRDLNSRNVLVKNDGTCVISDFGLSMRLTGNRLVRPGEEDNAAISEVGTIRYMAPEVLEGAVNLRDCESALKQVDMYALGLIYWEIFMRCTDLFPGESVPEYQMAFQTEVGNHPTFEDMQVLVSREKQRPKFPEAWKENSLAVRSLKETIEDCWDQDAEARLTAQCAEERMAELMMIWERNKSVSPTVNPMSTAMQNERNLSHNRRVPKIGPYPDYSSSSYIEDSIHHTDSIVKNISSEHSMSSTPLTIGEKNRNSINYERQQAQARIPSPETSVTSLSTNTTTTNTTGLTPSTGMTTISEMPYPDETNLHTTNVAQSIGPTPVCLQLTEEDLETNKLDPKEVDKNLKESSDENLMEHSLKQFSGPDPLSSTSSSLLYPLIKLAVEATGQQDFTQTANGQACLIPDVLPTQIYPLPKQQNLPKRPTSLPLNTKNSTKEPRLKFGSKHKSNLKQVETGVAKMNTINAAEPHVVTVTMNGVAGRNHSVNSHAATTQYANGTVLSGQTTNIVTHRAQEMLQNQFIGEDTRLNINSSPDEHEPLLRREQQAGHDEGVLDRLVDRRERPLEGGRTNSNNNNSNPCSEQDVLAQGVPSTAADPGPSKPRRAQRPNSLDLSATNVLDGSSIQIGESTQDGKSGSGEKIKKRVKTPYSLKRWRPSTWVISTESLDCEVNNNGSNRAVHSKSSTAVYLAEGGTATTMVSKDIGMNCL
# Also: in the data inactive means no Kd found up to 30 µM.
# Sequence of Casein kinase II subunit alpha' (P19784 whole entry): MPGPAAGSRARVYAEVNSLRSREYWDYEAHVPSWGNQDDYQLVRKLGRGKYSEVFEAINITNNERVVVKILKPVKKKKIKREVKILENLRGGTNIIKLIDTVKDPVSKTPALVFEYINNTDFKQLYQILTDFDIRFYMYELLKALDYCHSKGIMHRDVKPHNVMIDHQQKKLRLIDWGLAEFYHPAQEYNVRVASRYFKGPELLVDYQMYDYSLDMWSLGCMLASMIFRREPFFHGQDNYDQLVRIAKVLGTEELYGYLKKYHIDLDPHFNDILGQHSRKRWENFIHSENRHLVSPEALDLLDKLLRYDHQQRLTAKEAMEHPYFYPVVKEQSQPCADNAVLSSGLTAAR
Structure (SMILES),Kd [1],Kd [2],Kd [3],Kd [4],Kd [5],Kd [6],Kd [7],Kd [8],Kd [9],Kd [10]
N[C@@H]1CCCN(c2c(/C=C3\SC(=O)NC3=O)cccc2-c2ccccc2)C1,> 30 µM (inactive),3.02 µM (active),> 30 µM (inactive),> 30 µM (inactive),> 30 µM (inactive),> 30 µM (inactive),> 30 µM (inactive),> 30 µM (inactive),> 30 µM (inactive),> 30 µM (inactive)
CN1CC[C@@H](c2c(O)cc(O)c3c(=O)cc(-c4ccccc4Cl)oc23)[C@@H]1CO,> 30 µM (inactive),> 30 µM (inactive),1.48 µM,> 30 µM (inactive),> 30 µM (inactive),> 30 µM (inactive),> 30 µM (inactive),> 30 µM (inactive),> 30 µM (inactive),> 30 µM (inactive)
Cc1cc(-c2cc(O)ccc2Cl)cc2nnc(Nc3ccc(OCCN4CCCC4)cc3)nc12,> 30 µM (inactive),> 30 µM (inactive),0.003 µM (active),> 30 µM (inactive),> 30 µM (inactive),> 30 µM (inactive),> 30 µM (inactive),> 30 µM (inactive),> 30 µM (inactive),0.003 µM (active)
CCN1CCN(Cc2ccc(-c3cc4c(N[C@H](C)c5ccccc5)ncnc4[nH]3)cc2)CC1 [AEE-788],> 30 µM (inactive),> 30 µM (inactive),> 30 µM (inactive),> 30 µM (inactive),> 30 µM (inactive),> 30 µM (inactive),> 30 µM (inactive),> 30 µM (inactive),> 30 µM (inactive),> 30 µM (inactive)
Cn1ncc(Cl)c1-c1cc(C(=O)N[C@H](CN)Cc2cccc(F)c2)sc1Cl [AFURESERTIB],> 30 µM (inactive),> 30 µM (inactive),> 30 µM (inactive),> 30 µM (inactive),4.88 µM (active),> 30 µM (inactive),> 30 µM (inactive),> 30 µM (inactive),> 30 µM (inactive),> 30 µM (inactive)
CCc1cnn2c(NCc3ccc[n+]([O-])c3)cc(N3CCCC[C@H]3CCO)nc12 [DINACICLIB],,> 30 µM (inactive),> 30 µM (inactive),> 30 µM (inactive),> 30 µM (inactive),> 30 µM (inactive),> 30 µM (inactive),> 30 µM (inactive),> 30 µM (inactive),> 30 µM (inactive)
CN1CCN(c2ccc3nc(-c4c(N)c5c(F)cccc5[nH]c4=O)[nH]c3c2)CC1 [DOVITINIB],,,,,> 30 µM (inactive),> 30 µM (inactive),> 30 µM (inactive),,> 30 µM (inactive),
COC(=O)[C@@]1(O)C[C@H]2O[C@]1(C)n1c3ccccc3c3c4c(c5c6ccccc6n2c5c31)C(=O)NC4 [K-252A],4.85 µM (active),> 30 µM (inactive),> 30 µM (inactive),> 30 µM (inactive),,> 30 µM (inactive),> 30 µM (inactive),0.019 µM (active),> 30 µM (inactive),> 30 µM (inactive)
COc1cc2nccc(Oc3ccc(NC(=O)NC4CC4)c(Cl)c3)c2cc1C(N)=O [LENVATINIB],> 30 µM (inactive),> 30 µM (inactive),> 30 µM (inactive),,> 30 µM (inactive),> 30 µM (inactive),> 30 µM (inactive),2.24 µM,> 30 µM (inactive),> 30 µM (inactive)
OCCn1cc(-c2cnc3nnn(Cc4ccc5ncccc5c4)c3n2)cn1 [PF-04217903],,> 30 µM (inactive),> 30 µM (inactive),> 30 µM (inactive),> 30 µM (inactive),> 30 µM (inactive),> 30 µM (inactive),> 30 µM (inactive),> 30 µM (inactive),> 30 µM (inactive)
O=C(Nc1cccc(Cl)c1)Nc1ncc(CCNc2ncnc3ccsc23)s1 [SNS-314],,> 30 µM (inactive),,> 30 µM (inactive),> 30 µM (inactive),> 30 µM (inactive),> 30 µM (inactive),,> 30 µM (inactive),> 30 µM (inactive)
COc1cc2nccc(Oc3ccc(NC(=O)Nc4cc(C)on4)c(Cl)c3)c2cc1OC [TIVOZANIB],> 30 µM (inactive),> 30 µM (inactive),> 30 µM (inactive),,> 30 µM (inactive),> 30 µM (inactive),> 30 µM (inactive),> 30 µM (inactive),> 30 µM (inactive),> 30 µM (inactive)
CN1N=C(N)c2cn([C@@H]3O[C@H](COP(=O)(O)O)[C@@H](O)[C@H]3O)c3ncnc1c23 [TRICIRIBINE PHOSPHATE],> 30 µM (inactive),> 30 µM (inactive),,> 30 µM (inactive),> 30 µM (inactive),> 30 µM (inactive),> 30 µM (inactive),> 30 µM (inactive),> 30 µM (inactive),> 30 µM (inactive)

# Results, then the compound that gave them:
Kd [1],Kd [2],Kd [3],Kd [4],Kd [5],Kd [6],Kd [7],Kd [8],Kd [9],Kd [10],Structure (SMILES)
,0.015 µM (active),,0.841 µM (active),> 30 µM (inactive),> 30 µM (inactive),> 30 µM (inactive),> 30 µM (inactive),> 30 µM (inactive),,Cc1nc(N)sc1-c1ccnc(Nc2ccc(N3CCOCC3)cc2)n1 [CYC-116]
,4.41 µM (active),> 30 µM (inactive),> 30 µM (inactive),> 30 µM (inactive),> 30 µM (inactive),> 30 µM (inactive),> 30 µM (inactive),> 30 µM (inactive),,Cc1cc(Nc2cc(N3CCN(C)CC3)nc(/C=C/c3ccccc3)n2)n[nH]1 [ENMD-2076]
,,,,0.31 µM (active),> 30 µM (inactive),> 30 µM (inactive),,0.573 µM (active),,CCn1c(-c2nonc2N)nc2c(C#CC(C)(C)O)ncc(OC[C@H]3CCCNC3)c21 [GSK-690693]
